Measurements taken from patent publication US8389523B2, “Substituted quinoxaline and an agrochemical composition thereof” (Kumiai Chemical Industry Co., Ltd., priority 2007, dated 2013).

Experiments:
Format in all cases: in vivo
Set-up in all cases: scale not given here
Amaranthus viridis L. [1] = assay: Herbicidal effects in upland field soil treatment (Test Example 2); conditions: 1000 g active ingredient per hectare, 21st day after treatment, criteria of Table 138
Outline: (§1)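 Pre-emergence test: seeds sown in upland soil, then soil surface sprayed with diluted wettable powder at 1000 g active ingredient per hectare (1000 liters per hectare). Greenhouse growth; herbicidal effect scored on day 21 against set criteria.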

[2] = tested on: Abutilon theophrasti medicus; assay: as above; conditions: 1000 g active ingredient per hectare, 21st day after treatment, criteria of Table 138
Outline: as §1

Amaranthus viridis L. [3] = assay: Herbicidal effects in upland field foliar treatment (Test Example 3); conditions: criteria of Table 138; for herbicidal effects on Amaranthus viridis L.: 1000 g of the active ingredient per hectare, 14th day after the treatment, wettable powder; for herbicidal effect (index) on Amaranthus viridis L.: 1000 g active ingredient per hectare, 14th day after treatment
Outline: (§2)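 Plants grown two weeks from seed in upland soil in a greenhouse, then sprayed overall with water-diluted wettable powder at 1000 L/ha delivering 1000 g active ingredient/ha. Herbicidal effect scored by rating criteria 14 days after treatment.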

[4] = tested on: Abutilon theophrasti medicus; assay: as above; conditions: criteria of Table 138; for herbicidal effects on Abutilon theophrasti medicus: 1000 g of the active ingredient per hectare, 14th day after the treatment, wettable powder; for herbicidal effect (index) on Abutilon theophrasti medicus: 1000 g active ingredient per hectare, 14th day after treatment
Outline: as §2

[5] = tested on: Echinochloa crus-galli (L.) P. Beauv. var. crus-galli; assay: as above; conditions: criteria of Table 138; for herbicidal effects on Echinochloa crus-galli (L.) P. Beauv. var. crus-galli: 1000 g of the active ingredient per hectare, 14th day after the treatment, wettable powder; for herbicidal effect (index) on Echinochloa crus-galli (L.) P. Beauv. var. crus-galli: 1000 g active ingredient per hectare, 14th day after treatment
Outline: as §2

[6] = tested on: Echinochloa oryzicola Vasing; assay: Herbicidal effects in paddy field soil treatment (Test Example 1); conditions: for Herbicidal effects index, Echinochloa oryzicola Vasing: paddy field soil treatment, 1000 g of the active ingredient per hectare, wettable powder added dropwise on water surface, 21st day after treatment
Outline: (§3)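 Seeds sown in puddled paddy soil, waterlogged to 3 cm depth; next day a diluted wettable powder applied dropwise to the water surface at 1000 g active ingredient per hectare. Herbicidal effect scored 21 days after treatment in a greenhouse.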

[7] = tested on: Monochoria vaginalis (Burm. f.) Presl var. plantaginea (Roxb.) Solms-Laub.; assay: as above; conditions: for Herbicidal effects index, Monochoria vaginalis (Burm. f.) Presl var. plantaginea (Roxb.) Solms-Laub.: paddy field soil treatment, 1000 g of the active ingredient per hectare, wettable powder added dropwise on water surface, 21st day after treatment
Outline: as §3

[8] = tested on: Scirpus juncoides Roxb. var. ohwianus. T. Koyama; assay: as above; conditions: for Herbicidal effects index, Scirpus juncoides Roxb. var. ohwianus. T. Koyama: paddy field soil treatment, 1000 g of the active ingredient per hectare, wettable powder added dropwise on water surface, 21st day after treatment
Outline: as §3

[9] = paddy field soil treatment (Test Example 1), criteria of Table 138

In the case of `Cc1ccc(-n2c(=O)c(C(=O)C3=C(O)CCCC3=O)nc3ccccc32)c(F)c1` [II-212], the “herbicidal effect (index) on Amaranthus viridis L.” value (Amaranthus viridis L. [1]) was 5, the “herbicidal effect (index) on Abutilon theophrasti medicus” value [2] was 5 and the “herbicidal effects on Amaranthus viridis L.” value (Amaranthus viridis L. [3]) was 5. For the same molecule, the “herbicidal effects on Abutilon theophrasti medicus” value [4] was 5, the “herbicidal effects on Echinochloa crus-galli (L.) P. Beauv. var. crus-galli” value [5] was 5 and the “Herbicidal effects index, Echinochloa oryzicola Vasing” value [6] was 5. The “Herbicidal effects index, Monochoria vaginalis (Burm. f.) Presl var. plantaginea (Roxb.) Solms-Laub.” value (shortened to “Herbicidal effects index … (Roxb.) Solms-Laub.”) [7] was 5 and the “Herbicidal effects index, Scirpus juncoides Roxb. var. ohwianus. T. Koyama” value [8] was 5.
In the case of `O=C1CCCC(O)=C1C(=O)c1nc2ccccc2n(-c2nc(C(F)(F)F)co2)c1=O` [I-268], the “herbicidal effect (index) on Amaranthus viridis L.” value (Amaranthus viridis L. [1]) was 5, the “herbicidal effect (index) on Abutilon theophrasti medicus” value [2] was 5 and the “herbicidal effect (index) on Amaranthus viridis L.” value (Amaranthus viridis L. [3]) was 5. For the same molecule, the “herbicidal effect (index) on Abutilon theophrasti medicus” value [4] was 5, the “herbicidal effect (index) on Echinochloa crus-galli (L.) P. Beauv. var. crus-galli” value [5] was 5 and the “Herbicidal effects index, Echinochloa oryzicola Vasing” value [6] was 5. For the same molecule, the “Herbicidal effects index … (Roxb.) Solms-Laub.” value [7] was 5 and the “Herbicidal effects index, Scirpus juncoides Roxb. var. ohwianus. T. Koyama” value [8] was 5.
`O=C1CCCC(O)=C1C(=O)c1nc2cccnc2n(Cc2ccccc2F)c1=O` [III-108] was tested, and the “herbicidal effect (index) on Amaranthus viridis L.” value (Amaranthus viridis L. [1]) was 5, the “herbicidal effect (index) on Abutilon theophrasti medicus” value [2] was 5 and the “herbicidal effects on Amaranthus viridis L.” value (Amaranthus viridis L. [3]) was 5. For the same molecule, the “herbicidal effects on Abutilon theophrasti medicus” value [4] was 5, the “herbicidal effects on Echinochloa crus-galli (L.) P. Beauv. var. crus-galli” value [5] was 5 and the “Herbicidal effects index, Echinochloa oryzicola Vasing” value [6] was 5. The “Herbicidal effects index … (Roxb.) Solms-Laub.” value [7] was 5 and the “Herbicidal effects index, Scirpus juncoides Roxb. var. ohwianus. T. Koyama” value [8] was 5.
In the case of `COc1c(F)cc(-n2c(=O)c(C(=O)C3=C(O)CCCC3=O)nc3ccccc32)cc1F` [II-220], the “herbicidal effect (index) on Amaranthus viridis L.” value (Amaranthus viridis L. [1]) was 5, the “herbicidal effect (index) on Abutilon theophrasti medicus” value [2] was 5 and the “herbicidal effects on Amaranthus viridis L.” value (Amaranthus viridis L. [3]) was 5. The “herbicidal effects on Abutilon theophrasti medicus” value [4] was 5, the “herbicidal effects on Echinochloa crus-galli (L.) P. Beauv. var. crus-galli” value [5] was 5 and the “Herbicidal effects index, Echinochloa oryzicola Vasing” value [6] was 5. The “Herbicidal effects index … (Roxb.) Solms-Laub.” value [7] was 5 and the “Herbicidal effects index, Scirpus juncoides Roxb. var. ohwianus. T. Koyama” value [8] was 5.
`O=C1CCCC(O)=C1C(=O)c1nc2ccccc2n(-c2ccc(F)cn2)c1=O` [I-176] was tested, and the “herbicidal effect (index) on Amaranthus viridis L.” value (Amaranthus viridis L. [1]) was 5, the “herbicidal effect (index) on Abutilon theophrasti medicus” value [2] was 5 and the “herbicidal effect (index) on Amaranthus viridis L.” value (Amaranthus viridis L. [3]) was 5. The “herbicidal effect (index) on Abutilon theophrasti medicus” value [4] was 5, the “herbicidal effect (index) on Echinochloa crus-galli (L.) P. Beauv. var. crus-galli” value [5] was 5 and the “Herbicidal effects index, Echinochloa oryzicola Vasing” value [6] was 5. The “Herbicidal effects index … (Roxb.) Solms-Laub.” value [7] was 5 and the “Herbicidal effects index, Scirpus juncoides Roxb. var. ohwianus. T. Koyama” value [8] was 5.
`O=C1CCCC(O)=C1C(=O)c1nc2cc(F)cc(F)c2n(-c2ccccc2)c1=O` [II-261] was tested, and the “herbicidal effect (index) on Amaranthus viridis L.” value (Amaranthus viridis L. [1]) was 5, the “herbicidal effect (index) on Abutilon theophrasti medicus” value [2] was 4 and the “herbicidal effects on Amaranthus viridis L.” value (Amaranthus viridis L. [3]) was 5. The “herbicidal effects on Abutilon theophrasti medicus” value [4] was 5, the “herbicidal effects on Echinochloa crus-galli (L.) P. Beauv. var. crus-galli” value [5] was 5 and the “Herbicidal effects index, Echinochloa oryzicola Vasing” value [6] was 5. The “Herbicidal effects index … (Roxb.) Solms-Laub.” value [7] was 5 and the “Herbicidal effects index, Scirpus juncoides Roxb. var. ohwianus. T. Koyama” value [8] was 5.
In the case of `COc1cc(-n2c(=O)c(C(=O)C3=C(O)CCCC3=O)nc3ccccc32)ccc1C` [II-168], the “herbicidal effect (index) on Amaranthus viridis L.” value (Amaranthus viridis L. [1]) was 5, the “herbicidal effect (index) on Abutilon theophrasti medicus” value [2] was 5 and the “herbicidal effects on Amaranthus viridis L.” value (Amaranthus viridis L. [3]) was 5. For the same molecule, the “herbicidal effects on Abutilon theophrasti medicus” value [4] was 5, the “herbicidal effects on Echinochloa crus-galli (L.) P. Beauv. var. crus-galli” value [5] was 4 and the “Herbicidal effects index, Echinochloa oryzicola Vasing” value [6] was 5. The “Herbicidal effects index … (Roxb.) Solms-Laub.” value [7] was 5 and the “Herbicidal effects index, Scirpus juncoides Roxb. var. ohwianus. T. Koyama” value [8] was 5.
In the case of `O=C1CCCC(O)=C1C(=O)c1nc2cccnc2n(CC(F)(F)F)c1=O` [III-40], the “herbicidal effect (index) on Amaranthus viridis L.” value (Amaranthus viridis L. [1]) was 5, the “herbicidal effect (index) on Abutilon theophrasti medicus” value [2] was 5 and the “herbicidal effects on Amaranthus viridis L.” value (Amaranthus viridis L. [3]) was 5. The “herbicidal effects on Abutilon theophrasti medicus” value [4] was 5, the “herbicidal effects on Echinochloa crus-galli (L.) P. Beauv. var. crus-galli” value [5] was 4 and the “Herbicidal effects index, Echinochloa oryzicola Vasing” value [6] was 5. The “Herbicidal effects index … (Roxb.) Solms-Laub.” value [7] was 5 and the “Herbicidal effects index, Scirpus juncoides Roxb. var. ohwianus. T. Koyama” value [8] was 5.
`COc1ccc(-n2c(=O)c(C(=O)C3=C(O)CCCC3=O)nc3cccc(F)c32)cc1` [II-189] was tested, and the “herbicidal effect (index) on Amaranthus viridis L.” value (Amaranthus viridis L. [1]) was 5, the “herbicidal effect (index) on Abutilon theophrasti medicus” value [2] was 5 and the “herbicidal effects on Amaranthus viridis L.” value (Amaranthus viridis L. [3]) was 5. The “herbicidal effects on Abutilon theophrasti medicus” value [4] was 5, the “herbicidal effects on Echinochloa crus-galli (L.) P. Beauv. var. crus-galli” value [5] was 5 and the “Herbicidal effects index, Echinochloa oryzicola Vasing” value [6] was 5. The “Herbicidal effects index … (Roxb.) Solms-Laub.” value [7] was 5 and the “Herbicidal effects index, Scirpus juncoides Roxb. var. ohwianus. T. Koyama” value [8] was 5.
With `O=C1CCCC(O)=C1C(=O)c1nc2ccccc2n(-c2cccc(C(F)(F)F)c2)c1=O` [II-39] the “herbicidal effect (index) on Amaranthus viridis L.” value (Amaranthus viridis L. [1]) was 5, the “herbicidal effect (index) on Abutilon theophrasti medicus” value [2] was 5 and the “herbicidal effects on Amaranthus viridis L.” value (Amaranthus viridis L. [3]) was 5. The “herbicidal effects on Abutilon theophrasti medicus” value [4] was 5, the “herbicidal effects on Echinochloa crus-galli (L.) P. Beauv. var. crus-galli” value [5] was 5 and the “Herbicidal effects index, Echinochloa oryzicola Vasing” value [6] was 5. For the same molecule, the “Herbicidal effects index … (Roxb.) Solms-Laub.” value [7] was 5 and the “Herbicidal effects index, Scirpus juncoides Roxb. var. ohwianus. T. Koyama” value [8] was 5.
With `COc1cc(-n2c(=O)c(C(=O)C3=C(O)CCCC3=O)nc3ccccc32)cc(OC)c1OC` [II-185] the “herbicidal effect (index) on Amaranthus viridis L.” value (Amaranthus viridis L. [1]) was 5, the “herbicidal effect (index) on Abutilon theophrasti medicus” value [2] was 5 and the “herbicidal effects on Amaranthus viridis L.” value (Amaranthus viridis L. [3]) was 5. The “herbicidal effects on Abutilon theophrasti medicus” value [4] was 5, the “herbicidal effects on Echinochloa crus-galli (L.) P. Beauv. var. crus-galli” value [5] was 4 and the “Herbicidal effects index, Echinochloa oryzicola Vasing” value [6] was 4. The “Herbicidal effects index … (Roxb.) Solms-Laub.” value [7] was 5 and the “Herbicidal effects index, Scirpus juncoides Roxb. var. ohwianus. T. Koyama” value [8] was 5.
For `Cc1cnc(-n2c(=O)c(C(=O)C3=C(O)CCCC3=O)nc3ccccc32)cn1` [I-373], the “herbicidal effect (index) on Amaranthus viridis L.” value (Amaranthus viridis L. [1]) was 5, the “herbicidal effect (index) on Abutilon theophrasti medicus” value [2] was 5 and the “herbicidal effect (index) on Amaranthus viridis L.” value (Amaranthus viridis L. [3]) was 5. For the same molecule, the “herbicidal effect (index) on Abutilon theophrasti medicus” value [4] was 5, the “herbicidal effect (index) on Echinochloa crus-galli (L.) P. Beauv. var. crus-galli” value [5] was 5 and the “Herbicidal effects index, Echinochloa oryzicola Vasing” value [6] was 5. The “Herbicidal effects index … (Roxb.) Solms-Laub.” value [7] was 5 and the “Herbicidal effects index, Scirpus juncoides Roxb. var. ohwianus. T. Koyama” value [8] was 5.
With `CC1(C)CCC(=O)C(C(=O)c2cnc3ccccc3n2)=C1O` [comparative compound D, reference compound] the “herbicidal effect (index) on Amaranthus viridis L.” value (Amaranthus viridis L. [1]) was 3, the “herbicidal effect (index) on Abutilon theophrasti medicus” value [2] was 0 and the “herbicidal effects on Amaranthus viridis L.” value (Amaranthus viridis L. [3]) was 1. The “herbicidal effects on Abutilon theophrasti medicus” value [4] was 4, the “herbicidal effects on Echinochloa crus-galli (L.) P. Beauv. var. crus-galli” value [5] was 0 and the “herbicidal effect (index) on Echinochloa oryzicola Vasing” value [6, 9] was 1. For the same molecule, the “herbicidal effect (index) on Monochoria vaginalis (Burm. f.) Presl var. plantaginea (Roxb.) Solms-Laub.” value [7, 9] was 4 and the “herbicidal effect (index) on Scirpus juncoides Roxb. var. ohwianus. T. Koyama” value [8, 9] was 2.
With `O=C1CCCC(O)=C1C(=O)c1nc2ccccc2n(-c2ccc3c(c2)CCCC3)c1=O` [II-223] the “herbicidal effect (index) on Amaranthus viridis L.” value (Amaranthus viridis L. [1]) was 5, the “herbicidal effect (index) on Abutilon theophrasti medicus” value [2] was 4 and the “herbicidal effects on Amaranthus viridis L.” value (Amaranthus viridis L. [3]) was 5. For the same molecule, the “herbicidal effects on Abutilon theophrasti medicus” value [4] was 5, the “herbicidal effects on Echinochloa crus-galli (L.) P. Beauv. var. crus-galli” value [5] was 5 and the “Herbicidal effects index, Echinochloa oryzicola Vasing” value [6] was 5. The “Herbicidal effects index … (Roxb.) Solms-Laub.” value [7] was 5 and the “Herbicidal effects index, Scirpus juncoides Roxb. var. ohwianus. T. Koyama” value [8] was 5.
`COc1ccc(-n2c(=O)c(C(=O)C3=C(O)CCCC3=O)nc3ccccc32)nc1` [I-180] was tested, and the “herbicidal effect (index) on Amaranthus viridis L.” value (Amaranthus viridis L. [1]) was 5, the “herbicidal effect (index) on Abutilon theophrasti medicus” value [2] was 5 and the “herbicidal effect (index) on Amaranthus viridis L.” value (Amaranthus viridis L. [3]) was 5. For the same molecule, the “herbicidal effect (index) on Abutilon theophrasti medicus” value [4] was 5, the “herbicidal effect (index) on Echinochloa crus-galli (L.) P. Beauv. var. crus-galli” value [5] was 4 and the “Herbicidal effects index, Echinochloa oryzicola Vasing” value [6] was 4. The “Herbicidal effects index … (Roxb.) Solms-Laub.” value [7] was 5 and the “Herbicidal effects index, Scirpus juncoides Roxb. var. ohwianus. T. Koyama” value [8] was 5.
